Source: patent US20240100065A1, “METHODS FOR TREATING RECEPTOR-INTERACTING PROTEIN KINASE 1-MEDIATED DISEASES” (Genzyme Corporation, priority 2022, published 2024)
Converted amounts (≈) assume the structure as drawn. “And” between values parts separate entries of the source, which are not always exact repeats. Equal entries are not always repeated.

How the values were obtained:
[1] = Concentration-ECG (QTcF, HR, PR, QRS) analysis from 24-hour Holter; assay type: in vivo, human
Method: A thorough time-matched (TM∘) ECG parameters analysis in relation with SAR443820 concentrations on Day 1 (SAD-Part 1a) and on Day 14 (MAD Part 2) over 24 hours compared to the baseline prior the first dosing was performed on ECG extracted from 24-hour Holter data.
For Part 1a (SAD) and Part 2 (MAD), the concentration-ECG population will encompass all randomized participants treated by SAR443820 as long as they have at least 1 ECG assessment time-matched with a pharmacokinetic concentration (ECGs centrally read coming from 24-hours Holter ECG). Participants randomized in the placebo group will also be included in the Concentration-ECG population if they have at least 1 non missing change from baseline in ECG parameter. Exposure-response analyses between QTcF parameters (change from time-matched baseline in 24-hours Holter ECG data) and corresponding Compound 1 concentrations were performed using graphical tools and regression methods over 24 hours on Day 1 (SAD-Part 1a) or Day 14 (MAD-Part 2) post-dose. Predictions at selected concentrations were computed using a linear mixed effect model (see Am Heart J. 2014; 168(3):262-72. J Pharmacokinet Pharmacodyn. 2018; 45(3):383-97).

pRIPK1 = molecular target: T1, pRIPK1 (Homo sapiens, UniProt Q13546); test: Population PK/PD analysis of pRIPK1; assay type: in vivo
T1 construct: Human PBMC are a primary cell type that express endogenous RIPK kinase; endogenous in cells; host or cells: human PBMC isolated from blood of healthy participants
T1 sequence (Q13546 1-671): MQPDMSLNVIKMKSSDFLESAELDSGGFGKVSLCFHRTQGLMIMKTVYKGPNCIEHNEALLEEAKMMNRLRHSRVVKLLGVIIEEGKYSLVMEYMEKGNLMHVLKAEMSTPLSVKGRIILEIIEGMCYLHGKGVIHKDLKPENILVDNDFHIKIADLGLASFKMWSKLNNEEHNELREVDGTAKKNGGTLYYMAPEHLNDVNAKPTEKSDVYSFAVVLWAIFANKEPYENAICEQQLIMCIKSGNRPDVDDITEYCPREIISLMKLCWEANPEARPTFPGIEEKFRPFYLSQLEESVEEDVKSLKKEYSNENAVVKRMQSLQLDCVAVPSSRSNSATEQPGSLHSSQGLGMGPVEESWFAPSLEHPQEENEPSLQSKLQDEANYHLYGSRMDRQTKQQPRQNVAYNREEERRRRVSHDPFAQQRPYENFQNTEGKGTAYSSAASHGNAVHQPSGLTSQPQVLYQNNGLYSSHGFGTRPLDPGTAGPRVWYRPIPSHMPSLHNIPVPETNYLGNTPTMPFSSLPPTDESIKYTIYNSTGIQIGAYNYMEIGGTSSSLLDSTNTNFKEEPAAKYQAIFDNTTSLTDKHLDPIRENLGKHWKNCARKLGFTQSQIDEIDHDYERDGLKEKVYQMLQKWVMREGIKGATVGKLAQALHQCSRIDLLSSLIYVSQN
Method: An exploratory population pharmacokinetic/pharmacodynamic analysis of phosphorylated receptor-interacting protein kinase 1(pRIPK1) in healthy participants after single (SAD) and repeated (MAD) administrations of Compound 1 was carried out to develop a population PK/PD model from data after single and repeated doses in healthy adults and to derive individual parameters for each dose cohort.
The population PK/PD analysis was performed using the stochastic approximation expectation maximization (SAEM) algorithm for nonlinear mixed-effects models implemented in MONOLIX software (R1 2020). The observed plasma concentrations were used to develop the model with plasma concentrations from placebo participants and blow limit of quantitation (BLQ) plasma concentrations from verum participants being fixed to zero. Classical direct and indirect inhibitory models were evaluated. Model selection was based on objective function value Akaike and Bayesian Information criteria as well as standard goodness-of-fit plots (Psychol Methods. 2012 June; 17(2):228-43; Pharmaceutics. 2020 June; 12(6): 578.). From selected final population PK/PD model, individual PD parameters were derived and summarized by descriptive statistical analyses by study and dose level.
A total of 433 samples in 70 participants was considered (101, 121 and 211 samples after placebo, single dose and repeated doses, respectively). No data from potential outliers were excluded. In placebo participants, a very large inter-cohort and inter-individual variability was observed. […] Selection of structural PK/PD model confirmed that a direct relationship best described the data overall.

[2] = Part 1a Day 1, 10 mg, at Cmax 116.00 ng/ml
[3] = Part 1a Day 1, 20 mg, at Cmax 241.00 ng/ml
[4] = Part 1a Day 1, 30 mg, at Cmax 417.00 ng/ml
[5] = Part 1a Day 1, 40 mg, at Cmax 555.00 ng/ml
[6] = Part 2 Day 14, 10 mg QD, at Cmax 158.00 ng/ml
[7] = Part 2 Day 14, 15 mg BID, at Cmax 268.00 ng/ml
[8] = Part 2 Day 14, 20 mg BID, at Cmax 353.00 ng/ml
[9] = Part 2 Day 14, 20 mg QD, at Cmax 250.00 ng/ml

**Q.** With `CC(C)(C(=O)N1CCOc2c(C#N)cncc2C1)C(F)F` [Compound 1, 4-(3,3-difluoro-2,2-dimethyl-propanoyl)-3,5-dihydro-2H-pyrido[3,4-f] [1,4]oxazepine-9-carbonitrile] as the compound, how does the “Predicted delta Heart Rate vs placebo” value [1, 2] read?
**A.** −3.68 beats/min

**Q.** And the “Predicted delta PR Interval vs placebo” value [1, 2]?
**A.** 5.87 ms

**Q.** What about the “Predicted delta QRS Duration vs placebo” value [1, 2] of the same compound?
**A.** -0.04 ms

**Q.** What about the “Predicted delta QTcF interval vs placebo” value [1, 2] of the same compound?
**A.** -4.41 ms

**Q.** What about the “Predicted delta Heart Rate vs placebo” value [1, 3] of the same compound?
**A.** −2.62 beats/min

**Q.** What about the “Predicted delta PR Interval vs placebo” value [1, 3] of the same compound?
**A.** 6.70 ms

**Q.** What about the “Predicted delta QRS Duration vs placebo” value [1, 3] of the same compound?
**A.** 0.43 ms

**Q.** And the “Predicted delta QTcF interval vs placebo” value [1, 3]?
**A.** -3.88 ms

**Q.** What about the “Predicted delta Heart Rate vs placebo” value [1, 4] of the same compound?
**A.** −1.11 beats/min

**Q.** And the “Predicted delta PR Interval vs placebo” value [1, 4]?
**A.** 7.88 ms

**Q.** And the “Predicted delta QRS Duration vs placebo” value [1, 4]?
**A.** 1.10 ms

**Q.** And the “Predicted delta QTcF interval vs placebo” value [1, 4]?
**A.** -3.15 ms

**Q.** And the “Predicted delta Heart Rate vs placebo” value [1, 5]?
**A.** 0.06 beats/min

**Q.** What about the “Predicted delta PR Interval vs placebo” value [1, 5] of the same compound?
**A.** 8.80 ms

**Q.** And the “Predicted delta QRS Duration vs placebo” value [1, 5]?
**A.** 1.62 ms

**Q.** And the “Predicted delta QTcF interval vs placebo” value [1, 5]?
**A.** -2.57 ms

**Q.** What about the “Predicted delta Heart Rate vs placebo” value [1, 6] of the same compound?
**A.** 0.25 beats/min

**Q.** What about the “Predicted delta PR Interval vs placebo” value [1, 6] of the same compound?
**A.** -4.63 ms

**Q.** What about the “Predicted delta QRS Duration vs placebo” value [1, 6] of the same compound?
**A.** 2.52 ms

**Q.** What about the “Predicted delta QTcF interval vs placebo” value [1, 6] of the same compound?
**A.** -5.36 ms

**Q.** What about the “Predicted delta Heart Rate vs placebo” value [1, 7] of the same compound?
**A.** −0.26 beats/min

**Q.** And the “Predicted delta PR Interval vs placebo” value [1, 7]?
**A.** -4.53 ms

**Q.** And the “Predicted delta QRS Duration vs placebo” value [1, 7]?
**A.** 3.00 ms

**Q.** And the “Predicted delta QTcF interval vs placebo” value [1, 7]?
**A.** -3.74 ms

**Q.** And the “Predicted delta Heart Rate vs placebo” value [1, 8]?
**A.** −0.65 beats/min

**Q.** And the “Predicted delta PR Interval vs placebo” value [1, 8]?
**A.** -4.46 ms

**Q.** What about the “Predicted delta QRS Duration vs placebo” value [1, 8] of the same compound?
**A.** 3.37 ms

**Q.** And the “Predicted delta QTcF interval vs placebo” value [1, 8]?
**A.** -2.49 ms

**Q.** What about the “Predicted delta Heart Rate vs placebo” value [1, 9] of the same compound?
**A.** −0.18 beats/min

**Q.** And the “Predicted delta PR Interval vs placebo” value [1, 9]?
**A.** -4.55 ms

**Q.** What about the “Predicted delta QRS Duration vs placebo” value [1, 9] of the same compound?
**A.** 2.92 ms

**Q.** And the “Predicted delta QTcF interval vs placebo” value [1, 9]?
**A.** -4.01 ms

**Q.** And the “Effect on QTcF intervals” value ([1]; single dose up to 40 mg, repeated dose up to 20 mg BID)?
**A.** No clinically relevant dose-related effects

**Q.** And the “EC91, plasma conc for 91% decrease in E0” value (pRIPK1; derived typical value)?
**A.** 23.9 ng/mL

**Q.** And the “EC92, plasma conc for 92% decrease in E0” value (pRIPK1; derived typical value)?
**A.** 30.7 ng/mL

**Q.** And the “EC93, plasma conc for 93% decrease in E0” value (pRIPK1; derived typical value)?
**A.** 43.3 ng/mL

**Q.** What about the “EC94, plasma conc for 94% decrease in E0” value (pRIPK1; derived typical value) of the same compound?
**A.** 76.1 ng/mL

**Q.** What about the “EC95, plasma conc for 95% decrease in E0” value (pRIPK1; derived typical value) of the same compound?
**A.** 0.6 µg/mL

**Q.** What about the EC50 (pRIPK1; derived typical value, read-out: EC50, plasma conc for 50% decrease in E0 (converted)) of the same compound?
**A.** 6.2 nM

**Q.** And the EC90 (pRIPK1; derived typical value, read-out: EC90, plasma conc for 90% decrease in E0)?
**A.** 0.0197 µg/mL (≈ 0.0667 µM)

**Q.** And the “0(Gamma)” value (pRIPK1; population PK/PD model)?
**A.** 49.5%

**Q.** And the “E0, baseline effect” value (pRIPK1; population PK/PD model)?
**A.** 8541 AU_signal

**Q.** What about the σprop (pRIPK1; population PK/PD model) of the same compound?
**A.** 44.5%

**Q.** What about the “ω(E0)” value (pRIPK1; population PK/PD model) of the same compound?
**A.** 73.7%

**Q.** And the “ω(IC50)” value (pRIPK1; population PK/PD model)?
**A.** 71.4%

**Q.** And the “ω(Imax)” value (pRIPK1; population PK/PD model)?
**A.** 192%

**Q.** What about the Gamma (pRIPK1; population PK/PD model, sigmoidal Imax) of the same compound?
**A.** 1.17

**Q.** And the “Imax, maximum inhibitory effect on pRIPK1” value (pRIPK1; population PK/PD model, typical value, SAD and MAD data)?
**A.** 95.1% and 95%

**Q.** And the IC50 (pRIPK1; population PK/PD model, typical value, SAD and MAD data, read-out: IC50, plasma concentration needed for 50% of Imax (pRIPK1) (converted))?
**A.** 5.69 nM
